# Test results published in PMC8695447, “Novel Small Molecules Capable of Blocking mtRAS-Signaling Pathway” (Frontiers in Oncology, 2021).
# Legend:
# Format in all cases: cell-based
# [1] = system: phospho-70S6K1, -JNK, -p38 in Ba/F3-NRAS-G12D and OCI-AML cells; experiment: Western blot, ACK1 and GCK downstream signaling (phospho-70S6K1, -JNK, -p38); conditions: 0.1, 1, 10 μM for 2 h
# Method: (§1) Approximately 1 × 10^6 cells per well were seeded in a 6-well cell culture plate. After cell adhesion, each compounds were treated for 2 h with indicated concentration and conducted brief washing twice by ice-cold PBS. Cells were lysed by NP40 buffer (50 mM Tris–HCl pH 7.4, 1% NP40, 2 mM EDTA, 150 mM NaCl) in the presence of protease inhibitor cocktail (Roche, #11873580001) and phosphatase inhibitor cocktail (Roche, #04906837001). Each sample was loaded with same amount of total protein and separated by SDS-PAGE gel. After transferred to nitrocellulose membrane, blocking with 5% skim milk (in TBS/T) was followed. The membrane was incubated 4°C for overnight with uniformly diluted primary antibodies at 1:1,000 (v/v) in TBS/T. The following primary antibodies were used: anti-p-AKT (Cell Signaling, #9271), anti-p-ERK1/2 (Cell Signaling, #4370), anti-PARP (Cell Signaling, #9542), anti-GAPDH (Cell Signaling, #5174), anti-p-70S6K1 (Cell Signaling, #9204), anti-p-JNK(Cell Signaling, #9251), anti-p-p38 (Cell Signaling, #9216), and anti-p-MEK1/2 (Santa Cruz, sc-81503). […] Chemiluminescence signals were detected by ImageQuant™ LAS 4000 (GE Healthcare). […]
# [2] = system: cancer cells with mtRAS including H358, AsPC-1, DU-145, SW480, and MDA-MB-231; experiment: Invasion assay (Boyden chamber assay); conditions: 0.01 µM, 48 h
# Method: For invasion assay, Boyden chamber assay carried out. Transwell insert was precoated with matrigel (Corning, #354248). Cells were seeded in the transwell chamber insert (8 μm pore size) at a density of 5.0 × 10^5 cells/well after serum starvation for overnight. The cells were incubated with 0.01 μM concentration of each compounds of for 48 h at 37°C. The non-invaded cells were eliminated. Crystal violet solution was used to staining the invaded cells. Cells were observed and photographed with 100× magnification. Stained cells were automatically counted and quantified (n = 3).
# Figure 6 The effects of SIJ1795 and SIJ1772 on migration and invasion activities of cancer cells harboring mtRAS. (A) Scratch assay result for cell migration ability determination. Each cell monolayers were scratched and incubated with test compounds at 0.01 μM. After 8 h (MDA-MB-231) or 24 h (DU-145, SW480, HCT-116) or 48 h (AsPC-1) or 72 h (HT-29), cells were stained with crystal violet. Migrated areas were photographed with 40× magnification. Migrated area was determined by ImageJ (n = 3). (B) Boyden chamber assay result for cell invasion ability determination. […] Stained cells were counted by ImageJ (n = 3). Statistical significance was determined using a one-way ANOVA analysis (*p < 0.05, **p < 0.01, ***p < 0.001, ****p < 0.0001).
# [3] = system: Ba/F3 cells transformed with mtRAS (NRAS-G12D and NRAS-G12V) and cancer cells harboring mtRAS; experiment: Flow cytometry cell cycle analysis (PI); conditions: 1 μM, 24 h
# Method: For cell cycle analysis, cells (1 × 10^6 cells per sample) were incubated with each compounds for 24 h. Cells were subjected to brief ice-cold PBS washing and fixed with 70% EtOH for 1 h at −20°C. Cells were stained with PI/RNase staining solution (Cell signaling, #4087) and incubated 30 min at room temperature in a dark condition. Stained cells were subjected to flow cytometry analysis. Debris and unstained cells and were excluded by gating.
# Figure 5 The effects of SIJ1795 and SIJ1772 on cell cycle arrest against in (A, B) Ba/F3 cells transformed with mtRAS (NRAS-G12D and NRAS-G12V) and (C, D) cancer cells harboring mtRAS. Cells were treated with 1 µM of SIJ1795, SIJ1772, and GNF-7 for 24 h. Cells were stained by PI and analyzed the percentage of cell cycle phase by flow cytometry.
# [4] = system: phospho-AKT, -MEK, -ERK in cancer cells harboring mtRAS; experiment: Western blot, phospho-AKT, -MEK, -ERK in cancer cells harboring mtRAS; conditions: 0.1, 1, and 10 μM for 2 h
# Method: as §1
# HCT-116 (KRAS-G13D) = experiment: Anti-proliferation assay on HCT-116; conditions: Homo sapiens, HCT-116; 72 h treatment; average with SD (n = 3, duplicate)
# Method: Ba/F3-parental, OCI-AML3, U397 cells were purchased from DSMZ. MDA-MB-231, HCT-116, AsPC-1, H358, HT-29, SW480, and DU-145 cells were obtained from KCLB. MDA-MB-468 cells were obtained from ATCC. All cells were maintained in RPMI with 10% FBS and antibiotics. Cells were grown in a humidified 5% CO2 incubator at 37°C. Ba/F3-parental cells were grown in the presence of 10 ng/ml IL-3. NRAS-G12D or NRAS-G12V transformed Ba/F3 cell lines (Ba/F3-NRAS-G12D, and Ba/F3-NRAS-G12V, respectively) were cultured without IL-3, which were established by the procedure described as previously ([30]).
# Approximately 3.0 × 10^3 cells/well were seeded in a 96-well cell culture plate. After stabilization, 1/3 serially diluted compound in DMSO was treated to the cell. […] All GI50 values were obtained in duplicate with three independent assays and averages with standard deviation are presented.
SMILES,"phosphorylation of 70S6K1 (downstream molecule of ACK), JNK, p38 (downstream molecule of GCK) [1]",reduction in invasion capabilities [2],cell cycle arrest [3],signaling inhibitory activities in cancer cells with mtRAS relative to GNF-7 [4],GI50 (HCT-116 (KRAS-G13D)) [nM]
"CCN1CCN(c2cccc(Nc3ncc4c(n3)N(C)C(=O)N(c3cc(NC(=O)c5cccc(C(F)(F)F)c5)ccc3C)C4)c2)CC1 [SIJ1795, N-(3-(7-((3-(4-Ethylpiperazin-1-yl)phenyl)amino)-1-methyl-2-oxo-1,4-dihydropyrimido[4,5-d]pyrimidin-3(2H)-yl)-4-methylphenyl)-3-(trifluoromethyl)benzamide]",effectively inhibited,over 50%,G0/G1 arrest was induced,comparable to those of GNF-7,33 ± 6
"Cc1ccc(NC(=O)c2cccc(C(F)(F)F)c2)cc1N1Cc2cnc(Nc3cnn(C4CCN(S(C)(=O)=O)CC4)c3)nc2N(C)C1=O [SIJ1772, N-(4-Methyl-3-(1-methyl-7-((1-(1-(methylsulfonyl)piperidin-4-yl)-1H-pyrazol-4-yl)amino)-2-oxo-1,4-dihydropyrimido[4,5-d]pyrimidin-3(2H)-yl)phenyl)-3-(trifluoromethyl)benzamide]",effectively inhibited,over 50%,G0/G1 arrest was induced,comparable to those of GNF-7,38 ± 28
